According to PubChem BioAssay (NCI):
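Each compound was tested at five concentrations against cells in 96-well plates for 48 hours. GI50: concentration for 50% inhibition of growth. TGI is the concentration that stops growth completely.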

Legend:
Experiment in all cases: NCI tumour cell line growth inhibition, 48 h
NCI-H23 lung = system: NCI-H23 lung
HCC-2998 colon = system: HCC-2998 colon
LOX IMVI melanoma = system: LOX IMVI melanoma
NCI/ADR-RES ovarian = system: NCI/ADR-RES ovarian
HCT-116 colon = system: HCT-116 colon
A498 renal = system: A498 renal
MALME-3M melanoma = system: MALME-3M melanoma
A549 NSCLC = system: A549 NSCLC
M14 melanoma = system: M14 melanoma
COLO 205 colon = system: COLO 205 colon
IGROV1 ovarian = system: IGROV1 ovarian
TK-10 renal = system: TK-10 renal
MDA-MB-435 = system: MDA-MB-435
HOP-62 NSCLC = system: HOP-62 NSCLC
OVCAR-8 ovarian = system: OVCAR-8 ovarian
SK-MEL-2 melanoma = system: SK-MEL-2 melanoma
MOLT-4 leukemia = system: MOLT-4 leukemia
K-562 leukemia = system: K-562 leukemia
SF-539 CNS = system: SF-539 CNS
SN12C renal = system: SN12C renal
NCI-H522 lung = system: NCI-H522 lung
OVCAR-3 ovarian = system: OVCAR-3 ovarian
SF-295 CNS = system: SF-295 CNS
CCRF-CEM leukemia = system: CCRF-CEM leukemia
PC-3 prostate = system: PC-3 prostate
SW-620 colon = system: SW-620 colon
HL-60(TB) leukemia = system: HL-60(TB) leukemia
RPMI-8226 leukemia = system: RPMI-8226 leukemia
HT29 colon = system: HT29 colon
OVCAR-5 ovarian = system: OVCAR-5 ovarian
SR leukemia = system: SR leukemia
NCI-H226 lung = system: NCI-H226 lung
SNB-19 CNS = system: SNB-19 CNS
SK-MEL-28 melanoma = system: SK-MEL-28 melanoma
CAKI-1 renal = system: CAKI-1 renal
UACC-257 melanoma = system: UACC-257 melanoma
ACHN renal = system: ACHN renal
BT-549 breast = system: BT-549 breast
HS 578T breast = system: HS 578T breast
MDA-MB-231 breast = system: MDA-MB-231 breast
DU-145 prostate = system: DU-145 prostate
UACC-62 melanoma = system: UACC-62 melanoma
KM12 colon = system: KM12 colon
786-0 renal = system: 786-0 renal
HCT-15 colon = system: HCT-15 colon
NCI-H460 lung = system: NCI-H460 lung
SF-268 CNS = system: SF-268 CNS
SK-OV-3 ovarian = system: SK-OV-3 ovarian
U251 CNS = system: U251 CNS
HOP-92 NSCLC = system: HOP-92 NSCLC
T-47D breast = system: T-47D breast
SNB-75 CNS = system: SNB-75 CNS
UO-31 renal = system: UO-31 renal
SK-MEL-5 melanoma = system: SK-MEL-5 melanoma
EKVX NSCLC = system: EKVX NSCLC
MCF7 breast = system: MCF7 breast
OVCAR-4 ovarian = system: OVCAR-4 ovarian
RXF 393 renal = system: RXF 393 renal

`COc1cc(NC(=O)c2cc(O)c(C/C=C(\C)CCC=C(C)C)c(O)c2)cc2c1O[C@]1(C)CC[C@@H](O)C(C)(C)[C@H]1C2` showed a GI50 (NCI-H23 lung) of 2380 nM, a TGI (NCI-H23 lung) of 12800 nM and a GI50 (HCC-2998 colon) of 2210 nM. It also gave a TGI (HCC-2998 colon) of 7220 nM, a GI50 (LOX IMVI melanoma) of 1350 nM and a TGI (LOX IMVI melanoma) of 2890 nM. It also gave a GI50 (NCI/ADR-RES ovarian) of 7890 nM, a TGI (NCI/ADR-RES ovarian) of 44500 nM and a GI50 (HCT-116 colon) of 2070 nM. For the same compound, the TGI (HCT-116 colon) was 12300 nM, the GI50 (A498 renal) was 963 nM and the TGI (A498 renal) was 7900 nM. For the same compound, the GI50 (MALME-3M melanoma) was 1620 nM, the TGI (MALME-3M melanoma) was 5390 nM and the GI50 (A549 NSCLC) was 1980 nM. It also gave a TGI (A549 NSCLC) of 6660 nM, a GI50 (M14 melanoma) of 1480 nM and a TGI (M14 melanoma) of 4090 nM. It also gave a GI50 (COLO 205 colon) of 2220 nM, a TGI (COLO 205 colon) of 6720 nM and a GI50 (IGROV1 ovarian) of 2450 nM. The TGI (IGROV1 ovarian) was 11100 nM, the GI50 (TK-10 renal) was 3420 nM and the TGI (TK-10 renal) was 13700 nM. It also gave a GI50 (MDA-MB-435) of 2010 nM, a TGI (MDA-MB-435) of 8190 nM and a GI50 (HOP-62 NSCLC) of 1580 nM. The TGI (HOP-62 NSCLC) was 8220 nM, the GI50 (OVCAR-8 ovarian) was 2580 nM and the TGI (OVCAR-8 ovarian) was 14700 nM. For the same compound, the GI50 (SK-MEL-2 melanoma) was 1060 nM, the TGI (SK-MEL-2 melanoma) was 3430 nM and the GI50 (MOLT-4 leukemia) was 409 nM. It also gave a TGI (MOLT-4 leukemia) of 5830 nM, a GI50 (K-562 leukemia) of 957 nM and a TGI (K-562 leukemia) of 4880 nM. The GI50 (SF-539 CNS) was 348 nM, the TGI (SF-539 CNS) was 2380 nM and the GI50 (SN12C renal) was 2900 nM. It also gave a TGI (SN12C renal) of 12100 nM, a GI50 (NCI-H522 lung) of 2020 nM and a TGI (NCI-H522 lung) of 6500 nM. For the same compound, the GI50 (OVCAR-3 ovarian) was 1880 nM, the TGI (OVCAR-3 ovarian) was 5490 nM and the GI50 (SF-295 CNS) was 306 nM. The TGI (SF-295 CNS) was 1520 nM, the GI50 (CCRF-CEM leukemia) was 463 nM and the TGI (CCRF-CEM leukemia) was 7210 nM. It also gave a GI50 (PC-3 prostate) of 849 nM, a TGI (PC-3 prostate) of 7160 nM and a GI50 (SW-620 colon) of 2620 nM. It also gave a TGI (SW-620 colon) of 13100 nM, a GI50 (HL-60(TB) leukemia) of 549 nM and a TGI (HL-60(TB) leukemia) of 4880 nM. For the same compound, the GI50 (RPMI-8226 leukemia) was 262 nM, the TGI (RPMI-8226 leukemia) was 1320 nM and the GI50 (HT29 colon) was 1620 nM. It also gave a TGI (HT29 colon) of 5790 nM, a GI50 (OVCAR-5 ovarian) of 4090 nM and a TGI (OVCAR-5 ovarian) of 19200 nM. The GI50 (SR leukemia) was 418 nM, the TGI (SR leukemia) was 4340 nM and the GI50 (NCI-H226 lung) was 3340 nM. The TGI (NCI-H226 lung) was 16200 nM, the GI50 (SNB-19 CNS) was 1360 nM and the TGI (SNB-19 CNS) was 4460 nM. For the same compound, the GI50 (SK-MEL-28 melanoma) was 1430 nM, the TGI (SK-MEL-28 melanoma) was 8250 nM and the GI50 (CAKI-1 renal) was 1530 nM. It also gave a TGI (CAKI-1 renal) of 11800 nM, a GI50 (UACC-257 melanoma) of 2820 nM and a TGI (UACC-257 melanoma) of 14300 nM. It also gave a GI50 (ACHN renal) of 2210 nM, a TGI (ACHN renal) of 10100 nM and a GI50 (BT-549 breast) of 841 nM. It also gave a TGI (BT-549 breast) of 3550 nM, a GI50 (HS 578T breast) of 348 nM and a TGI (HS 578T breast) of 8750 nM. The GI50 (MDA-MB-231 breast) was 1110 nM, the TGI (MDA-MB-231 breast) was 5040 nM and the GI50 (DU-145 prostate) was 2250 nM. For the same compound, the TGI (DU-145 prostate) was 12200 nM, the GI50 (UACC-62 melanoma) was 1420 nM and the TGI (UACC-62 melanoma) was 3370 nM. It also gave a GI50 (KM12 colon) of 1630 nM, a TGI (KM12 colon) of 4440 nM and a GI50 (786-0 renal) of 604 nM. For the same compound, the TGI (786-0 renal) was 6440 nM, the GI50 (HCT-15 colon) was 2090 nM and the TGI (HCT-15 colon) was 7530 nM. For the same compound, the GI50 (NCI-H460 lung) was 1970 nM, the TGI (NCI-H460 lung) was 11200 nM and the GI50 (SF-268 CNS) was 1560 nM. For the same compound, the TGI (SF-268 CNS) was 5740 nM, the GI50 (SK-OV-3 ovarian) was 1790 nM and the TGI (SK-OV-3 ovarian) was 12900 nM. It also gave a GI50 (U251 CNS) of 724 nM, a TGI (U251 CNS) of 5330 nM and a GI50 (HOP-92 NSCLC) of 627 nM. For the same compound, the TGI (HOP-92 NSCLC) was 3890 nM, the GI50 (T-47D breast) was 1630 nM and the TGI (T-47D breast) was 6950 nM. The GI50 (SNB-75 CNS) was 444 nM, the TGI (SNB-75 CNS) was 2750 nM and the GI50 (UO-31 renal) was 2700 nM. It also gave a TGI (UO-31 renal) of 9710 nM, a GI50 (SK-MEL-5 melanoma) of 1340 nM and a TGI (SK-MEL-5 melanoma) of 2900 nM. For the same compound, the GI50 (EKVX NSCLC) was 2250 nM, the TGI (EKVX NSCLC) was 11400 nM and the GI50 (MCF7 breast) was 1080 nM. For the same compound, the TGI (MCF7 breast) was 5730 nM, the GI50 (OVCAR-4 ovarian) was 2570 nM and the TGI (OVCAR-4 ovarian) was 12700 nM. The GI50 (RXF 393 renal) was 209 nM and the TGI (RXF 393 renal) was 747 nM.
